Series [1] relates to Cortical neurons in glia-deficient culture. The series is described as follows: Serum deprivation apoptotic neuronal death in glia-deficient cultures (trypan blue cell counting). Type of series: cell-based, Mouse. To be noted: 10 (M, 48 hours after onset of serum-deprivation); 10 µM. How it is done:
Mouse neocortical cultures were prepared as neuron-astrocyte co-cultures (approximately 50% astrocytes) (Rose et al., 1992) or as neuronal cultures (< 2% astrocytes). Mouse embryos (gestational day 15) are removed from pregnant anesthetized Swiss-Webster mice, and the neocortex is dissected away from other brain structures. After brief incubation in trypsin, the cells are dissociated by trituration, and the cell suspension is then diluted into plating medium and plated onto previously-prepared 24-well Plastek culture plates coated with poly-D-lysine/laminin (for neuronal cultures) or onto an existing bed of astrocytes (for co-cultures). After 1-2 days in vitro, a partial exchange with glial conditioned medium is made for "pure" neuronal cultures, and cytosine arabinoside (3µM) is added immediately after feeding to inhibit glial proliferation. Mixed cultures are fed biweekly with growth medium until 11-12 days in vitro, when they are fed with serum-free MS containing 2 mM L-glutamine. Unless otherwise stated, cells were used at 14-16 days in vitro. […]
Additionally, neuronal cell death was determined at 48 hours removal of serum by counting cells that are no longer able to exclude trypan blue.

For series [2], the system named is wild-type animals. As to the kind of experiment: Tolerability in wild-type animals treated two months. Type of series: in vivo, mice. To be noted: 15 mg/kg/day.
For series [3], the system named is FALS mice (Gurney GI strain). The series is described as follows: Survival in a transgenic model of amyotrophic lateral sclerosis. Type of series: in vivo. To be noted: 15 mg/kg/day, intraperitoneal mini-osmotic pumps from 10 weeks of age. How it is done:
The G1 line, with 18 copies and 4 times the SOD activity of wildtype animals, develops motor neuron death by 3-4 months of age, with hindlimb weakness, impaired grooming, and thinning along their flanks. Affected mice were dead before 5 months of age (Gurney et al., 1994).
C60(C(COOH)2)3 was used to treat FALS mice (Gurney GI strain) to determine its ability to treat FALS. At 10 weeks of age, Alzet mino-osmotic pumps (28 day, 6 (l/day, 15 mg/kg/day) containing C60(C(COOH)2)3 (the mixed isomers, which consist of >90% O-3a) or saline were implanted intraperitoneally. The pumps were replaced at 14 weeks of age. Videotaped assessments of open field walking were performed and scored using the Bresnahan scale for spinal cord injury (Basso et al., 1995). As reported by Gurney and colleagues, these animals develop motor symptoms by approximately 90 days of age, and are moribund between 125 and 145 days of age.
The 8 day increase in survival reached statistical significance (p=0.041), by t-test. There was no difference in survival for FALS mice who received no pumps (123 days, n=4) or those treated with saline-filled pumps (125 days, n=6).

The subject of series [4] is NMDA receptors. As to the kind of experiment: 45Ca2+ tracer experiments, NMDA-stimulated calcium accumulation in cultured neurons. The class given is cell-based, Mouse. To be noted: co-application of up to 300 (M with NMDA (300 (M), 10 minutes)). How it is done:
To verify that protection against NMDA-induced neuronal cell injury was not due to a reduction in NMDA-induced calcium influx, ^45Ca^2+ tracer studies were performed. Cultures were washed twice with HBBSS and then exposed to NMDA (300 (M), either alone or with C60(C(COOH)2)3, in HBBSS containing tracer ^45Ca^2+ (0.5 (Ci/culture well; NEN, Boston, MA). The exposure was terminated after 10 minutes by exchanging the medium four times with unlabelled HBBSS, followed by lysis of the cells by addition of 0.2% sodium dodecyl sulfate (SDS). The cells were left in SDS for 2 hours, and the lysate was then transferred to scintillation vials. An additional wash of each culture well with SDS was added to the vial, which then underwent (-counting.

Series [5] has as its system cortical neurons. The series is described as follows: NMDA excitotoxic neuronal injury in neuron-astrocyte co-cultures (LDH efflux). Type of series: cell-based, Mouse. To be noted: for reduction of neuronal death from NMDA: 300(M, co-applied with NMDA for 10 minutes, assessed at 24 hours), all experiments performed to date. How it is done: (§1) Mouse neocortical cultures were prepared as neuron-astrocyte co-cultures (approximately 50% astrocytes) (Rose et al., 1992) or as neuronal cultures (< 2% astrocytes). Mouse embryos (gestational day 15) are removed from pregnant anesthetized Swiss-Webster mice, and the neocortex is dissected away from other brain structures. After brief incubation in trypsin, the cells are dissociated by trituration, and the cell suspension is then diluted into plating medium and plated onto previously-prepared 24-well Plastek culture plates coated with poly-D-lysine/laminin (for neuronal cultures) or onto an existing bed of astrocytes (for co-cultures). After 1-2 days in vitro, a partial exchange with glial conditioned medium is made for "pure" neuronal cultures, and cytosine arabinoside (3µM) is added immediately after feeding to inhibit glial proliferation. Mixed cultures are fed biweekly with growth medium until 11-12 days in vitro, when they are fed with serum-free MS containing 2 mM L-glutamine. Unless otherwise stated, cells were used at 14-16 days in vitro.
Carboxyfullerene (3-300 (M) was co-applied to neuron-astrocyte co-cultures described above with NMDA for assessment of neuroprotection. Brief exposure to NMDA in the presence of the carboxyfullerene was carried out by triple exchange of the medium with HBBSS, followed by addition of 50µM- 500µM NMDA plus carboxyfullerene for 10 minutes. The NMDA and carboxyfullerene were removed by quadruple exchange of the medium with MS, and the cultures were placed in the humidified, CO2 (5%), 37°C incubator for 24 hours, when the extent of injury was assessed.
Neuronal death was assessed at 24 hours after NMDA or AMPA administration by phase contrast microscopy at 200-400x, and by measurement of lactate dehydrogenase (LDH) efflux from dying cells into the bathing medium (Koh and Choi, 1987). Quantitation of cell death was confirmed in some experiments by trypan blue or propidium iodide staining and cell counting.

In series [6] the test system is cortical neurons. The series is described as follows: AMPA excitotoxic neuronal injury in neuron-astrocyte co-cultures (LDH efflux). The class given is cell-based, Mouse. How it is done:
as §1, with “Mouse” for “Mouse neocortical cultures were prepared as neuron-astrocyte co-cultures (approximately 50% astrocytes) (Rose et al., 1992) or as neuronal cultures (< 2% astrocytes). Mouse”

The nature of series [7]: Solubility in water / aqueous solution. Type of series: physicochemical. An excerpt:
Solutions of carboxyfullerene were translucent brown.

Series [8] concerns hepatocytes. As to the kind of experiment: Protection from injury in hepatocytes. Type of series: cell-based. To be noted: compared with R-3b.
Series [9] in a line: Spin-trap (DMPO) electron paramagnetic resonance spectroscopy, hydroxyl radical scavenging. To be noted: for scavenging of •OH by EPR: •OH from 100 µM H2O2 in Fe2+ (Fenton reaction), 100 mM DMPO, 4 µM compound. The method, then: Hydroxyl radical (spectra on left): ^•OH in the presence of DMPO alone (top), in the presence of 4 µM O-3a (middle), or in the presence of 4 µM R-3b (bottom). Superoxide radical (right): O2^•- in DMPO alone (top), in the presence of 400 µM O-3a (middle), in the presence of 400 µM R-3b (bottom). The arrow designates a spurious signal due to an unknown radical in the cavity. The sample was analyzed in a quartz flat cell (60 x 10 x 0.25 mm) in a Bruker 200, X-band EPR spectrometer. Settings were power = 1.6 mW, modulation = 1 G, field modulation = 100 Hz, R.G. = 3.2x10^5.

A short description of series [10]: Spin-trap (DMPO) electron paramagnetic resonance spectroscopy, superoxide radical scavenging (xanthine + xanthine oxidase). To be noted: compound co-incubated with xanthine oxidase and xanthine.
Series [11] has as its system endothelial cell cultures. The series is described as follows: Protection from injury in endothelial cell cultures. Type of series: cell-based. To be noted: compared with R-3b.
Series [12] can be described thus: Spin-label/EPR membrane experiments (5- or 16-doxyl ketostearic acid in brain lipids). Type of series: physicochemical, mouse. To be noted: for Lipid/aqueous partition factor: f = hL/hA, measured for 16-doxylstearic acid. The method, then:
Values are mean ± SEM, n=8-12 per conditions. * = p<0.05 vs. untreated injury condition, using ANOVA followed by Student-Newman-Keuls test for multiple comparisons. ** = p<0.05 R-3b different than O-3a. […] The spin labels were added to lipids extracted from adult mouse brain at a ratio of 1:100. EPR settings were the same as those listed in the legend for Figure 9. Both isomers produce a shift in the order parameter (S) of the 5-doxyl group, but O-3a produced a greater change in S (Table 1).

These results are taken from EP0904070B1, “THE USE OF BUCKMINSTERFULLERENE FOR TREATMENT OF NEUROTOXIC INJURY” (F. HOFFMANN-LA ROCHE AG, priority 1996, dated 1997).

For the substance C60(C(COOH)2)3, in series [1], the “reduction in neuronal death (serum deprivation)” value is listed as 50%. In addition, the “adverse health or behavioral effects” value in [2] (n=6) is on record as “no adverse health or behavioral effects”. Also, in series [2] (within genders), the “weights versus untreated littermates” value is “similar”. Also, in series [3], the onset of symptoms entry is listed as “delay in onset of symptoms”. In [3] (versus saline, p = 0.041, mixed isomers, >90% O-3a), the delay in death worked out at 8 ± 2.2 days. The “45Ca2+ accumulation” value in [4] is “not affected”. For the same substance, the entries for the “reduction of neuronal death from NMDA” value in series [5] and in [5] (300 µM) were “nearly complete protection” and “at least 60%”, respectively. In [5] (pooled data from three experiments (Fig. 5)), the “reduction in neuronal cell death (NMDA)” value amounted to 75%. For the same substance, in series [6] (100 (M, 24 hours exposure, MK-801 (10 (M) included, data from 4 experiments pooled)), 100 µM), the “reduction of neuronal cell death from AMPA” value is > 80%. Further, the soluble in water result in series [7] is “at least 50 mM”.
Take C60(C(COOH)2)3 [Compound O-3a]: the “protection from injury in hepatocytes” value in series [8] was “enhanced protection over R-3b”. Moreover, in series [9] (150 (M compound included with H2O2, 15 minute period)), the “hydroxyl radical (spin adduct DMPO-OH) EPR signal” value is listed as “elimination of this OH signal”. Moreover, the “scavenging of •OH by EPR” value in series [9] is on record as “extremely potent scavengers”. In addition, the “superoxide radical (spin adduct DMPO-OOH) EPR signal” value in [10] was “eliminated the superoxide radical signal”. In series [5] (Fig. 10 A, n=8-12 per condition), the “protection from injury produced by application of NMDA, compared with R-3b” value was “slightly better protection”. For the same substance, the “protection from injury in endothelial cell cultures” value in series [11] was “enhanced protection over R-3b”. In [6] (Fig. 10 B, n=8-12 per condition), the “protection against AMPA-induced neuronal death, compared with R-3b” value was “substantially better protection”. Besides, the Lipid/aqueous partition factor in [12] is 1.0 ± 0.2. The “entry into the lipid bilayer” value in [12] (inferred from order parameter and 16-doxyl signal) is “to a greater extent than R-3b”.
C60(C(COOH)2)3 [Compound R-3b]: in [9], the “scavenging of •OH by EPR” value is on record as “extremely potent scavengers”. The “superoxide radical (spin adduct DMPO-OOH) EPR signal” value in series [10] is listed as “eliminated the superoxide radical signal”. In series [5] (excitotoxic injury by NMDA and AMPA, insult not stated separately), the “neuroprotective activity (in words)” value was “effective neuroprotectant”. Moreover, the Lipid/aqueous partition factor in series [12] worked out at 0.6.
